Legend:
human pancreatic islets = assay: Glucagon secretion in human pancreatic islets under low glucose (3 mM), ELISA; type: cell-based; conditions: 3 mM glucose
rat pancreatic islets = assay: Epinephrine-induced glucagon secretion in rat pancreatic islets; type: cell-based; conditions: epinephrine 5 μM; at 30 μM
[1] = tested on: rat isolated pancreatic α-cell; assay: Spontaneous electrical activity of isolated pancreatic α-cells (membrane potential recording); type: cell-based
Protocol: Acutely isolated pancreatic islets were allowed to recover overnight at 37° C./5% CO2 in Islet Media (RMPI 1640 supplemented with 10 mM HEPES, 1 mM sodium pyruvate, 10% FBS, 100 U/mL penicillin, 100 μg/mL streptomycin, 2 mM L-glutamine). The islets were resuspended and then centrifuged for 3 minutes at 200×g. […] The number of live cells was counted and diluted to 1×10^5 with Islet Media. […]
Membrane potential and ion channel currents were recorded 24-72 hours after dispersion using the perforated patch configuration. […] Series resistance (Rs) was monitored using a voltage step from −70 mV to 0 mV (5 ms, 0.5 Hz) and was allowed to stabilize prior to beginning the experiment (Rs<30 MOhm).
The identity of the α-cell was confirmed using cell size (membrane capacitance <6 pF) and the presence of electrical activity in low (3 mM) extracellular glucose, which are hallmarks of dispersed α-cells. […] All recordings were made using pClamp 10.2 and were analyzed using Microsoft Excel 2003, Graphpad Prism7 or OriginPro7.
Recordings of membrane potential were made at 32° C. […] Representative records (30 sec) were analyzed using the event detection feature (threshold of 10 mV) to quantitate the spontaneous firing frequency and total charge movement. The membrane potential between events was measured for changes induced by the compound. […]

[2] = tested on: STZ-induced diabetic mice; assay: STZ-induced diabetic mouse, animal model of type 1 diabetes; type: in vivo
Protocol: Streptozotocin (STZ) induces diabetes by selectively destroying the pancreatic β-cells. Five-week old male C57BL/6J mice were injected with STZ (40 mg/kg, i.p., dissolved in cold 0.025 mol/L sodium citrate-buffered solution at pH 4.5, freshly made right before injection) for 5 consecutive days to induce diabetes. Fasting plasma glucose (FPG) levels were determined 2 days after STZ treatment. Diabetic mice were then divided into STZ+vehicle and STZ+ranolazine group (10 mice/group) based on body weight (BW) and blood glucose levels. Age and gender matched non-diabetic mice were used as “normal” controls (n=3). For the following 8 weeks, mice were given either vehicle or ranolazine (20 mg/kg in water, p.o., twice daily). BW and FPG levels were monitored once a week. HbA1c levels were measured using a DCA 2000+ clinical analyzer (Siemens) at 0, 4 and 8 weeks of treatment. At the end of the treatment, pancreases from all groups were collected, fixed in 10% formalin overnight and then embedded in paraffin. HE staining and fluorescent staining were performed to review the islet morphology in all groups.

[3] = after 8 weeks treatment, fluorescence staining

Row | SMILES | maximal reduction of glucagon secretion as compared to the vehicle control (human pancreatic islets; at 30 μM) | reduction of epinephrine-induced increase of glucagon secretion (rat pancreatic islets) | reduction of spontaneous electrical activity ([1]; 10 μM) | fasting plasma glucose (FPG) ([2]; 20 mg/kg p.o. twice daily, week 4) | fasting plasma glucose (FPG) ([2]; 20 mg/kg p.o. twice daily, week 6 to week 8) | HbA1c ([2]; 20 mg/kg p.o. twice daily, week 8) | insulin-positive area per islet [2, 3] | percentage of total islet (insulin and glucagon) area [2, 3] | maximal reduction of glucagon secretion as compared to the vehicle control (human pancreatic islets; at 3 μM) | reduction of spontaneous electrical activity ([1]; at 0.3 μM)
1 | COc1ccccc1OCC(O)CN1CCN(CC(=O)Nc2c(C)cccc2C)CC1 (racemic) [Ranolazine, ±-N-(2,6-dimethylphenyl)-4-[2-hydroxy-3-(2-methoxyphenoxy)-propyl]-1-piperazineacetamide] | 36±4% | 44±8% | 44% | 264 ± 30 mg/dL | 188 ± 20 mg/dL | 4.6±0.2% | 69±2.4% | 0.30±0.03% | – | –
2 | FC(F)(F)Oc1ccc(-c2ccc3nnc(C(F)(F)F)n3c2)cc1 [Compound A, 6-(4-(trifluoromethoxy)phenyl)-3-(trifluoromethyl)-[1,2,4]triazolo[4,3-α]pyridine] | – | – | – | – | – | – | – | – | 51±9% | 75%
